Source: US11945792B2, “Crystalline forms of 6-(1-acryloylpiperidin-4-yl)-2-(4-phenoxyphenyl)nicotinamide” (BEIJING INNOCARE PHARMA TECH CO., LTD., priority 2018, dated 2024)
≈ marks a conversion by molar mass, not a printed value. Entries after “also recorded” stand apart in the source; their conditions may differ.

How the values were obtained:
Format in all cases: physicochemical
[1] = Solid-state stability assessment on storage (XRPD and HPLC purity); settings: 92.5% RH for about 17 days
[2] = as above
Method: Approximate 10 mg of Type A sample was added into each 1.5-mL glass vial and stored at 80° C. (closed) for 1 day, 25° C./60% RH and 40° C./75% RH (open) for 1 week, then tested by XRPD and HPLC purity. Approximate 4 mg of Type B sample was added into each 1.5-mL glass vial and stored at 80° C. (closed) for 1 day, 25° C./60% RH and 40° C./75% RH (open) for 1 week, then tested by XRPD and HPLC purity. Approximate 4 mg of Type D sample was added into each 1.5-mL glass vial and stored at 25° C./60% RH and 40° C./75% RH (open) for 1 week, then tested by XRPD and HPLC purity. Approximate 7 mg of Type F sample was added into each 1.5-mL glass vial and stored at 80° C. (closed) for 1 day, 25° C./60% RH and 40° C./75% RH (open) for 1 week, then tested by XRPD and HPLC purity.

[3] = Hygroscopicity assessment by dynamic vapor sorption (DVS); settings: for hygroscopicity class: Chinese Pharmacopeia 2010 definition; for hygroscopicity class / water uptake: 25° C., 80% RH; for form change after DVS test: XRPD before and after DVS test
Method: XRPD studies was performed using a Panalytical Empyrean X-ray powder diffractometer. The parameters of the X-ray powder diffraction of the present disclosure are as follows: • X-ray Reflection: Cu, Kα • Kα1 (Å): 1.540598; Kα2 (Å): 1.544426 • Kα2/Kα1 intensity ratio: 0.50 • Voltage: 45 (kV) • Current: 40 (mA) • Scanning range: from 3.0 degree to 40.0 degree • DSC data in the present disclosure were acquired by a TA Q2000. The parameters of the DSC method of the present disclosure were as follows: • Heating rate: 10° C./min • Purge gas: nitrogen • TGA data in the present disclosure are acquired by a TA Q5000. The parameters of the TGA method of the present disclosure were as follow: • Heating rate: 10° C./min • Purge gas: nitrogen • Dynamic vapor sorption (DVS) data in the present disclosure were acquired by a SMS (Surface Measurement Systems) DVS Intrinsic. The parameters of the dynamic vapor sorption (DVS) method of the present disclosure were as follows: • Temperature: 25° C. • Gas and flow rate: nitrogen, 200 mL/min • dm/dt: 0.002%/min • RH range: 0% RH-95% RH Approximate 10 mg of Type B sample in the present disclosure was assessed by hygroscopicity using a dynamic vapor sorption (DVS) instrument, and tested by XRPD before and after DVS test.

[4] = Equilibrium solubility in water at room temperature for 24 hours; settings: for Form Change: residual solids by XRPD after 24 hours in water at room temperature; for pH: solubility test in water, 24 hours; for pH / Solubility: room temperature; for Solubility: water, 24 hours equilibrium
Method: 10 mg of Type A, B, D, and F samples each was added into a 1.5-mL glass vial, and 1.0 mL of water was then added. The mixture was rolled at 25 rpm at room temperature for 24 hours. The suspension was centrifuged and filtered to isolate the supernatant for HPLC concentration and purity testing and the residual solids were characterized by XRPD.

[5] = Interconversion of crystal forms via heating and slurry competition experiments; settings: for form after slurry competition: slurry in various solvent systems
Description: Relationships among Type A-F crystal forms were investigated via heating and slurry competition experiments.

[6] = 25° C./60% RH and 40° C./75% RH (open) 1 week
[7] = 80° C. (closed) 1 day and 25° C./60% RH, 40° C./75% RH (open) 1 week
[8] = ACN, EtOH, MeOH/H2O (1:1, v/v) and H2O from RT to 50/70° C.

Purity/initial purity ([2]; 25° C./60% RH (open)/1 week) [%] | Purity/initial purity ([2]; 40° C./75% RH (open)/1 week) [%] | change in purity after storage [2, 7] | stability of the form after storage [2, 7] | Purity/initial purity ([2]; 80° C. (closed)/1 day) [%] | hygroscopicity class ([3]; DVS) | Form Change [4] | pH [4] | form after slurry [5, 8] | form after slurry competition [5] | water uptake ([3]; DVS) [%] | Solubility [4] [µg/mL] | Compound | stability of the form after storage [2, 6] | form change after DVS test [3] | also measured
100.0 | 100.1 | no decrease in purity | did not change; also recorded: stable | 100.0 | hygroscopic | Yes, to Type B | 7.4 | converted to Type F | converted into anhydrate Type F | – | – | C=CC(=O)N1CCC(c2ccc(C(N)=O)c(-c3ccc(Oc4ccccc4)cc3)n2)CC1 [Type A, 6-(1-acryloylpiperidin-4-yl)-2-(4-phenoxyphenyl)nicotinamide] | relatively good physical and chemical stability | – | crystallinity after storage [1]: decreased
99.5 | 99.7 | no decrease in purity | did not change; also recorded: stable | 99.7 | slightly hygroscopic | No | 7.7 | converted to Type F | converted into anhydrate Type F | 0.5 | 6 (≈ 14 µM) | C=CC(=O)N1CCC(c2ccc(C(N)=O)c(-c3ccc(Oc4ccccc4)cc3)n2)CC1 [Type B, 6-(1-acryloylpiperidin-4-yl)-2-(4-phenoxyphenyl)nicotinamide] | – | did not change; also recorded: no form change | –
– | – | – | – | – | – | – | – | – | – | – | – | C=CC(=O)N1CCC(c2ccc(C(N)=O)c(-c3ccc(Oc4ccccc4)cc3)n2)CC1 [Type C, 6-(1-acryloylpiperidin-4-yl)-2-(4-phenoxyphenyl)nicotinamide] | – | – | form after slurry ([5]; H2O at 50° C. for about 21 days): convert to anhydrate Type B
99.9 | 99.9 | – | – | – | – | No | 8.0 | – | converted into anhydrate Type F | – | 18 (≈ 42.1 µM) | C=CC(=O)N1CCC(c2ccc(C(N)=O)c(-c3ccc(Oc4ccccc4)cc3)n2)CC1 [Type D, 6-(1-acryloylpiperidin-4-yl)-2-(4-phenoxyphenyl)nicotinamide] | did not change; also recorded: stable | – | change in purity after storage [2, 6]: no significant decrease in purity; Final form ([2]; 80° C. (closed)/1 day, XRPD): converted to a mixture of Type B and D; also recorded: converted to the mixture of Type B and D; DVS finding ([3]; DVS): relative stable hydrate; form after slurry ([5]; MeOH/H2O (aw~0.5) and EtOH/H2O (aw=0~1) at RT): converted to anhydrate Type F; form after dehydration ([5]; dehydration at elevated temperature): converted to anhydrate Type E
100.0 | 100.0 | no decrease in purity | did not change; also recorded: stable | 100.0 | slightly hygroscopic | No | 6.9 | – | – | 1.2 | – | C=CC(=O)N1CCC(c2ccc(C(N)=O)c(-c3ccc(Oc4ccccc4)cc3)n2)CC1 [Type F, 6-(1-acryloylpiperidin-4-yl)-2-(4-phenoxyphenyl)nicotinamide] | relatively good physical and chemical stability | did not change; also recorded: no form change | relative thermodynamic stability ([5]; between RT and 50/70° C.): thermodynamically more stable form than Type A/B/D; also recorded: more stable anhydrous form among Type A/B/D/F
